We go through 62 compounds from US20100022559A1, “BISOXIMES AS FUNGICIDES” (BAYER CROPSCIENCE AG, priority 2006, published 2010).

The structures appear in SMILES notation.

A short description of the series: logP determination by HPLC on a reversed-phase column (C 18), EEC Directive 79/831 Annex V.A8. In kind it is physicochemical. The protocol:
The stated logP values were determined in accordance with EEC Directive 79/831 Annex V.A8 by HPLC (high performance liquid chromatography) on a reversed-phase column (C 18). Temperature: 43° C.

[1] abbreviates: method marker [a] (footnote not shown), isomer A / isomer B / isomer mixture as noted in the cell.
Setting [2] is: method marker [b], isomer A / isomer B / isomer mixture as noted in the cell.
The mark [3] stands for this setting: [a] acidic range, pH 2.3, 0.1% aqueous phosphoric acid and acetonitrile.
Where [4] appears, read: [b] LC-MS, acidic range, pH 2.7, 0.1% aqueous formic acid and acetonitrile.
[5] abbreviates: [c] LC-MS, neutral range, pH 7.8, 0.001 molar aqueous ammonium bicarbonate solution and acetonitrile.

Consider `CCCC(=NOCCCCCCON=C(C)c1cccc(C)n1)c1cccc(C)n1` [compound 345], for which, under “value marked [b]”, the logP was 6.16^[b].
In the case of `CCC(=NOCCCCON=C(CC)c1cccc(C)n1)c1cccc(C)n1` (mixture of isomers) [compound 223], the logP under setting [1] was 4.86^[a].
In the case of `CC(=NOCC1(CON=C(C)c2cc(C)cc(C)n2)CC(c2ccccc2)=NO1)c1cc(C)cc(C)n1` (stereo not shown) [compound 643], under “method marked [b] in Table 1”, the logP is 2.55^[b].
Regarding `CC(=NOCCCCCCON=C(c1cccc(C)n1)C(C)C)c1cccc(C)n1` (single isomer, unassigned) [compound 526], the logP (value marked [b]) is given as 4.91^b](isomer A).
In the case of `CC(=NOCC1(CON=C(C)c2ccc(C)c(C)n2)CC1)c1cc(C)cc(C)n1` [Compound 695], the logP runs as follows: (method marked [b] in Table 1) 2.61^[b]; (method marked [c] in Table 1) 6.02^[c].
Take `CC(=NOCCCCCON=C(C)c1cccc(C)n1)c1cccc(C)n1` [Compound 11]: under setting [2], the logP is 3.85^[b].
`CC(=NOCCCCCCON=C(C)c1cc2ccccc2o1)c1cccc(C)n1` [compound 393]: the logP (value marked [b]) was 5.78^[b].
For `CCCC(=NOCCCON=C(CCC)c1ncccc1C)c1ncccc1C` (single isomer, unassigned) [compound 99], the logP under setting [1] is 4.22^[a] (isomer A).
For `CC(C)=CC1=NOC(CON=C(C)c2cc(C)cc(C)n2)(CON=C(C)c2cc(C)cc(C)n2)C1` (stereo not shown) [compound 647], for the setting “method marked [b] in Table 1”, the logP was 2.48^[b].
As for `CC(=NOCC(C)CON=C(C)c1cccc(C)n1)c1cccc(C(F)(F)F)c1` (stereo not shown) [compound 433], the logP (value marked [b]) was 5.71^[b].
For `CC(=NOCC(C)CON=C(C)c1cccc(C)n1)c1cccc(C)n1` (stereo not shown) [Compound 1], the logP was 2.31^[a] under setting [1] and 5.44^[c] (method marker [c] (footnote not shown)).
`C=C(CON=Cc1cccc(C)n1)CON=C(C)c1cccc(C)n1` [compound 663]: under “method marked [b] in Table 1”, the logP is 2.54^[b].
`CCOC(=O)C(C)(CON=C(C)c1nc(C)ccc1C)CON=C(C)c1nc(C)ccc1C` (stereo not shown) [compound 884]: the logP (value marked [b]) was 2.47^[b] and the logP (value marked [c]) is 3.84^[c].
As for `CCC(=NOCCCCCCON=C(C)c1cccc(C)n1)c1ncccc1C` (single isomer, unassigned) [compound 532], the logP (value marked [b]) is 3.99^b] (isomer )A.
For `CC(=NOCC(C)(C)CON=C(C)c1nc(C)c(C)s1)c1cccc(C)n1` [compound 411], the logP (value marked [b]) is 5.36^[b].
As to `C=C(CON=C(C)c1cccnc1Cl)CON=C(C)c1cccnc1Cl` [compound 148], the logP under setting [2] was 3.53^[b].
On to `CC(=NOCCCCON=C(C)c1cccc(C)n1)c1ccc2c(c1)CC(C)O2` (stereo not shown) [compound 441], for which, for the setting “value marked [b]”, the logP is 4.91^[b].
`C=C(CON=C(C)c1ccc(C)cn1)CON=C(C)c1ccc(C)cn1` [compound 152]: the logP under setting [2] is 3.36^[b].
As to `CC(=NOCC(C)CON=C(C)c1cccc(NCC2CC2)n1)c1cccc(NCC2CC2)n1` (stereo not shown) [Compound 791], for the setting “value marked [a]”, the logP was 1.95^[a].
With `CC(=NOCC1(CON=C(C)c2cccc(NCC3CC3)n2)CCC1)c1cccc(NCC2CC2)n1` [compound 850], the logP (value marked [b]) was 2.28^[b].
For the compound `CCC1=NOC(CON=C(C)c2cccc(C)n2)(CON=C(C)c2cccc(C)n2)C1` (stereo not shown) [compound 594], the logP (method marked [a] in Table 1) is 2.68^[a].
As for `CC(=NOCC(C)CON=C(C)c1csc(C)n1)c1csc(C)n1` (stereo not shown) [compound 517], the logP was 3.52^[a] (value marked [a]) and 3.52^[b] (value marked [b]).
Turning to `CCC(CC)(C(=O)ON=C(C)c1cccc(C)n1)C(=O)ON=C(C)c1cccc(C)n1` [compound 745], under “method marked [b] in Table 1”, the logP was 4.49^[b].
For `CC(=NOCC(CON=C(C)c1nc(C)ccc1C)Cc1ccccc1)c1cccc(C)n1` (stereo not shown) [compound 591], the logP by setting is: (method marked [b] in Table 1) 3.40^[b]; (method marked [c] in Table 1) 5.07^[c].
Consider `CCc1cccc(C(C)=NOCC(C)CON=C(C)c2cccc(CC)n2)n1` (stereo not shown) [Compound 179], for which, under setting [1], the logP was 6.21^[a].
As for `CCC(=NOCC(C)CON=C(CC)c1cccc(C)n1)c1cccc(C)n1` (stereo not shown) [Compound 116], the logP under setting [1] was 5.40^[a].
As to `CC(=NOCC1(CON=C(C)c2ccc(C)c(C)n2)CC1)c1cccc(C)n1` [Compound 786], the logP runs as follows: (value marked [a]) 3.99^[a]; (value marked [b]) 3.99^[b]; (value marked [c]) 5.70^[c].
With `C=C(CON=C(c1cccc(C)n1)C1CC1)CON=C(c1cccc(C)n1)C1CC1` (single isomer, unassigned) [Compound 311], the logP (value marked [a]) is 3.29^[a] (isomer B).
Turning to `CC(=NOCC(C)(C)CON=C(c1ccccc1)c1cccc(C)n1)c1cccc(C)n1` (single isomer, unassigned) [compound 879], the logP by setting is: (value marked [b]) 4.61^[b]; (value marked [c]) 4.52^[c].
Consider `C=C(CON=C(C)c1cccc(C)n1)CON=C(C)c1cc(C(F)(F)F)cc(C)n1` [compound 211], for which the logP under setting [2] is 5.70^[b].
Turning to `CC(=NOCCCON=C(C)c1ccc(C)nc1)c1ccc(C)nc1` [compound 228], under setting [1], the logP is 1.27^[a].
Still for that read-out and setting: with `CC(=NOCC(F)(F)CON=C(C)c1cccc(C)n1)c1cccc(C)n1` [compound 86] the figure was 4.00^[a].
Take `CC(=NOCC(CON=C(C)c1ccc(C)c(C)n1)c1ccccc1)c1ccc(C)c(C)n1` (stereo not shown) [Compound 318]: the logP was 4.02^[b] (value marked [b]) and 6.45^[c] (value marked [c]).
As to `Cc1cccnc1C(Cc1ccccc1)=NOCCCON=C(Cc1ccccc1)c1ncccc1C` (single isomer, unassigned) [compound 96], under setting [1], the logP was 5.54^[a] (isomer B).
With `C/C(=N\OCC(C)CON)c1ccc(C)c(C)n1` (racemic) [XII-7], the logP is 0.37^[a] under setting [3], 0.37^[b] under setting [4] and 2.49^[c] under setting [5].
As for `CC(=NOc1ncnc(ON=C(C)c2cccc(C)n2)c1C)c1cccc(C)n1` [compound 728], the logP reads like this: (method marked [b] in Table 1) 2.34^[b]; (method marked [c] in Table 1) 3.45^[c].
Turning to `CCC(=NOCCCCON=C(C)c1cccc(C)n1)c1ncccc1C` (single isomer, unassigned) [compound 328], where the note is “value marked [b]”, the logP is 3.65^[b] (isomer B).
With `C/C(=N\OCC(C)CON)c1cc(C(F)(F)F)cc(C)n1` (racemic) [XII-15], the logP reads like this: under setting [3], 2.33^[a]; under setting [4], 2.33^[b]; under setting [5], 3.38^[c].
For `CC(=NOCC(C)CON=C(C)c1nc2ccccc2s1)c1nc2ccccc2s1` (stereo not shown) [Compound 213], the logP under setting [2] is 6.71^[b].
As to `C=C(CON=Cc1cccc(C)n1)CON=Cc1cccc(C)n1` [compound 667], the logP (method marked [b] in Table 1) is 2.16^[b].
The same measure, in the same setting: with `CC(=NOCc1ccc(CON=C(C)c2nc(C)c(C)s2)cc1)c1nc(C)c(C)s1` [compound 736] the figure was 5.84^[b].
Still for that read-out and setting: with `CC(=NOc1ncnc(ON=C(C)c2cccc(C)n2)c1Cl)c1cccc(C)n1` [compound 729] the figure was 3.31^[b].
Take `C=C(CON=C(C)c1cccc(C)n1)CON=C(C)c1nccc(C)n1` [compound 510]: the logP (value marked [b]) was 2.37^[b].
Same read-out and setting: with `C=CCCC(=NOCCCCCCON=C(C)c1cccc(C)n1)c1ncccc1C` (single isomer, unassigned) [compound 524] the figure was 5.65^[b] (isomer B).
Turning to `C=C(CON=C(C)c1cccc(C)n1)CON=C(C)c1cccc(Br)n1` [Compound 206], under setting [2], the logP is 4.98^[b].
Turning to `CCC(C)(CON=C(C)c1ccc(C)c(C)n1)CON=C(C)c1ccc(C)c(C)n1` (stereo not shown) [Compound 793], the logP is 5.39^[b] (value marked [b]) and 7.27^[c] (value marked [c]).
As to `C=C(CON=C(C)c1ccncc1)CON=C(C)c1cccc(C)n1` [compound 467], the logP (value marked [b]) is 1.88^[b].
As for `CC(=NOCC(C)CON=C(C)c1ccc2c(n1)CCC2)c1ccc2c(n1)CCC2` (stereo not shown) [Compound 300], the logP (value marked [a]) was 4.14^[a].
On the same count and under the same terms, with `C=C(CON=C(Cl)c1cccc(C)n1)CON=C(Cl)c1ccc(C)c(C)n1` [compound 822] the figure was 4.12^[a].
Consider `C=C(CON=C(C)c1ccc(Cl)s1)CON=C(C)c1ccc(Cl)s1` [compound 20], for which the logP under setting [2] is 5.88^[b].
As for `Cc1nc(C(N)=NOC/C=C/CON=C(N)c2nc(C)c(Cl)c(C)n2)nc(C)c1Cl` [compound 774], the logP (value marked [b]) was 2.70^[b].
As for `C=C(CON=C(C)c1cccc(C)n1)CON=C(Cl)c1ccc(C)c(C)n1` [Compound 807], where the note is “value marked [a]”, the logP is 3.8^[a].
Regarding `CC(=NOCCCCON=C(C)c1ccccc1Cl)c1cccc(C)n1` [compound 379], the logP (value marked [b]) is 4.85^[b].
As to `CC(=NOCCCCON=C(C)c1cccc(C)n1)c1cccc(C)n1` [compound 6], the logP under setting [2] is 3,16^[b].
Regarding `CC(=NOCC(C)(C)CON=C(C)c1nc2ccccc2[nH]1)c1nc2ccccc2[nH]1` [Compound 573], where the note is “method marked [a] in Table 1”, the logP was 2.10^[a].
On to `CC(=NOCCCCON=C(C)c1ccc(Cl)s1)c1cccc(C)n1` [compound 446], for which the logP (value marked [b]) was 4.97^[b].
`C=C(CON=C(C)c1ccc(C)nc1)CON=C(C)c1ccc(C)nc1` [compound 22]: the logP under setting [2] was 1.37^[b].
Regarding `COc1cc(C)nc(C(C)=NOCC(C)CON=C(C)c2cc(OC)cc(C)n2)c1` (stereo not shown) [Compound 806], the logP is 1.31^[a] (value marked [a]) and 5.25^[c] (value marked [c]).
Consider `C=C(CON=C(C)c1cccc(C)n1)CON=C(C)c1cccs1` [compound 196], for which the logP under setting [2] was 4.23^[b].
For the compound `C=C(CON=C(C)c1cccc(COC)n1)CON=C(C)c1cccc(COC)n1` [compound 291], the logP (value marked [b]) was 4.44^[b].
Same read-out and setting: with `CCCc1cccc(C(C)=NOCC(C)CON=C(C)c2cccc(C)n2)n1` (stereo not shown) [Compound 502] the figure was 5.84^[b].
As for `CC(=NOc1nc(Cl)nc(ON=C(C)c2cccc(C)n2)c1Cl)c1cccc(C)n1` (single isomer, unassigned) [compound 779], the logP (value marked [b]) is 4.62^[b] and the logP (value marked [c]) was 5.09^[c].
